Reference: ChEMBL document CHEMBL1122023, “Potential antitumor agents. 36. Quantitative relationships between experimental antitumor activity, toxicity, and structure for the general class of 9-anilinoacridine antitumor agents” (J Med Chem, 1982)

Test: physchem
Description: Ionization constant (pKa)

pKa | Compound
6.56 | CS(=O)(=O)Nc1ccc(Nc2c3ccc(Cl)cc3nc3ccc(N)cc23)cc1
7.46 | CCc1ccc2nc3ccccc3c(Nc3ccc(NS(C)(=O)=O)cc3OC)c2c1
6.68 | CS(=O)(=O)Nc1ccc(Nc2c3ccccc3nc3c(CO)cccc23)cc1
7.67 | COc1cc(NS(C)(=O)=O)ccc1Nc1c2ccc(C)cc2nc2c(C)cccc12
5.68 | COc1cc(NS(C)(=O)=O)ccc1Nc1c2ccc([N+](=O)[O-])cc2nc2c(OC)cccc12
6.91 | COc1ccc2c(Nc3ccc(NS(C)(=O)=O)cc3)c3ccc(Cl)cc3nc2c1
6.18 | COc1cc(NS(C)(=O)=O)ccc1Nc1c2ccc(Cl)cc2nc2cc(Cl)ccc12
7.5 | COc1cc(NS(C)(=O)=O)ccc1Nc1c2ccccc2nc2cc(CCC(N)=O)ccc12
7.35 | CCC(=O)Nc1ccc2c(Nc3ccc(NS(C)(=O)=O)cc3)c3ccccc3nc2c1
6.17 | COc1cc(NS(C)(=O)=O)ccc1Nc1c2ccc(Br)cc2nc2cc(Br)ccc12
6.71 | CS(=O)(=O)Nc1ccc(Nc2c3ccccc3nc3cc(Cl)c(N)cc23)cc1
5.94 | COc1cc(NS(C)(=O)=O)ccc1Nc1c2ccccc2nc2ccncc12
7.22 | COc1cc(NS(C)(=O)=O)ccc1Nc1c2ccc(N=[N+]=[N-])cc2nc2c(C)cccc12
6.9 | COc1cc(NS(C)(=O)=O)ccc1Nc1c2cccc(OC)c2nc2c(OC)cccc12
4.98 | COc1cc(NS(C)(=O)=O)ccc1Nc1c2ccccc2nc2cccc([N+](=O)[O-])c12
9.5 | CNc1ccc2c(Nc3ccc(NS(C)(=O)=O)cc3OC)c3ccccc3nc2c1
5.81 | Cc1ccc2c(Nc3ccc(NS(C)(=O)=O)cc3)c3ccc([N+](=O)[O-])cc3nc2c1
7.14 | CCc1cccc2c(Nc3ccc(NS(C)(=O)=O)cc3)c3ccccc3nc12
7.26 | COc1cc(NS(C)(=O)=O)ccc1Nc1c2ccccc2nc2cc(N=[N+]=[N-])ccc12
6.74 | COc1cc(NS(C)(=O)=O)ccc1Nc1c2ccc(I)cc2nc2c(OC)cccc12
6.52 | COc1ccc2nc3cc(Cl)ccc3c(Nc3ccc(NS(C)(=O)=O)cc3OC)c2c1

pKa | Compound
6.72 | COc1cc(NS(C)(=O)=O)ccc1Nc1c2ccc(I)cc2nc2ccc(N)cc12
6.77 | CS(=O)(=O)Nc1ccc(Nc2c3ccccc3nc3cc(F)ccc23)cc1
6.56 | COc1cc(NS(C)(=O)=O)ccc1Nc1c2ccccc2nc2cc(C(F)(F)F)c(N)cc12
7.36 | CCCOc1cccc2c(Nc3ccc(NS(C)(=O)=O)cc3OC)c3ccccc3nc12
7.77 | COc1cc(NS(C)(=O)=O)ccc1Nc1c2ccccc2nc2cc(NC(C)=O)ccc12
9.88 | COc1cc(NS(C)(=O)=O)ccc1Nc1c2ccc(N)cc2nc2c(C)cccc12
7.27 | CN(C)c1ccc2nc3ccccc3c(Nc3ccc(NS(C)(=O)=O)cc3)c2c1
7.64 | COc1cc(NS(C)(=O)=O)ccc1Nc1c2ccccc2nc2cc(C(C)(C)C)ccc12
7.55 | CC(=O)Nc1ccc2c(Nc3ccc(NS(C)(=O)=O)cc3)c3ccc(NC(C)=O)cc3nc2c1
7.13 | CN(C)/N=N/c1ccc2c(Nc3ccc(NS(C)(=O)=O)cc3)c3ccccc3nc2c1
6.71 | COc1cc(NS(C)(=O)=O)ccc1Nc1c2ccccc2nc2cccc(C)c12
7.1 | COc1ccc2[nH]c3ccccc3c(=Nc3ccc(NS(C)(=O)=O)cc3OC)c2c1
7.38 | COc1cc(NS(C)(=O)=O)ccc1N=c1c2ccccc2[nH]c2ccc(C(C)(C)C)cc12
6.59 | COc1cc(NS(C)(=O)=O)ccc1N=c1c2ccccc2[nH]c2ccc(C(N)=O)cc12
6.69 | COc1cc(NS(C)(=O)=O)ccc1Nc1c2ccccc2nc2ccc(Cl)cc12
7.36 | COc1cc(NS(C)(=O)=O)ccc1Nc1c2ccccc2nc2cc(N)ccc12
7.36 | Cc1cc(NS(C)(=O)=O)ccc1Nc1c2ccccc2nc2ccccc12
8.24 | CCCNc1ccc(Nc2c3ccccc3nc3ccccc23)cc1
7.39 | Cc1cc(NS(C)(=O)=O)ccc1Nc1c2ccccc2nc2c(C)cccc12
5.63 | COc1cc(NS(C)(=O)=O)ccc1Nc1c2ccccc2nc2ccc([N+](=O)[O-])cc12
7.15 | COc1cc(NS(=O)(=O)OC)ccc1Nc1c2ccccc2nc2c(CCC(N)=O)cccc12

pKa | Compound
6.02 | CS(=O)(=O)Nc1ccc(NS(C)(=O)=O)c(Nc2c3ccccc3nc3ccccc23)c1
7.01 | COc1cc(NS(C)(=O)=O)ccc1Nc1c2ccccc2nc2cc(Br)c(N)cc12
7.65 | COc1cc(NS(C)(=O)=O)ccc1Nc1c2ccccc2nc2c(C)c(C)ccc12
7.46 | Cc1ccc2c(Nc3ccc(NS(C)(=O)=O)cc3)c3cccc(C)c3nc2c1
6.7 | COc1cc(NS(C)(=O)=O)ccc1Nc1c2ccc(I)cc2nc2c(OCC(O)CO)cccc12 (stereo not drawn)
6.79 | COc1cc(NS(C)(=O)=O)ccc1Nc1c2ccc(Cl)cc2nc2c(OC)cccc12
6.71 | COc1cc(NS(C)(=O)=O)ccc1Nc1c2ccccc2nc2c(C)c(Cl)ccc12
6.26 | O=[N+]([O-])c1ccc2nc3ccccc3c(Nc3ccccc3)c2c1
7.34 | CCCCOc1cccc2c(Nc3ccc(NS(C)(=O)=O)cc3OC)c3ccccc3nc12
7.19 | COc1cc(NS(C)(=O)=O)ccc1Nc1c2ccccc2nc2cccnc12
5.87 | COc1cc(NS(C)(=O)=O)ccc1Nc1c2ccccc2nc2cc(S(C)(=O)=O)ccc12
6.91 | COc1cc(NS(C)(=O)=O)ccc1Nc1c2cccc(C)c2nc2c(C)cccc12
6.57 | COS(=O)(=O)Nc1ccc(Nc2c3ccccc3nc3cc(Cl)ccc23)cc1
5.42 | CS(=O)(=O)Nc1ccc(Nc2c3ccccc3nc3ccccc23)cc1[N+](=O)[O-]
7.37 | CCCC(=O)Nc1ccc2c(Nc3ccc(NS(C)(=O)=O)cc3)c3ccccc3nc2c1
6.03 | COc1cc(NS(C)(=O)=O)ccc1Nc1c2ccc(C)cc2nc2cc([N+](=O)[O-])ccc12
6.35 | COc1cc(NS(C)(=O)=O)ccc1Nc1c2ccccc2nc2c(OC3OC(CO)C(O)C(O)C3NC(C)=O)cccc12 (stereo not drawn)
7.4 | COc1ccccc1Nc1c2ccccc2nc2ccc(C(C)C)c(NS(C)(=O)=O)c12
6.34 | COc1cc(NS(C)(=O)=O)ccc1Nc1c2ccccc2nc2c(C(=O)NCCO)cccc12
7 | COc1cc(NS(C)(=O)=O)ccc1Nc1c2ccccc2nc2c(OCC(O)CO)cccc12 (stereo in doubt; 303)

Compound | pKa
COc1cc(NS(C)(=O)=O)ccc1Nc1c2ccc([N+](=O)[O-])cc2nc2cc([N+](=O)[O-])ccc12 | 3.82
